# Data: BindingDB's records for PubMed 29751237 (University of Kwazulu-Natal, 2018)
# Biological target: Maltase-glucoamylase (Homo sapiens, UniProt O43451)
# Experiment: Inhibition of alpha-glucosidase (unknown origin) using p-nitrophenyl-alpha-D-glucopyranoside as substrate incubated for 30 mins by spectrophotometric analysis
# Chain of Maltase-glucoamylase (O43451 whole entry): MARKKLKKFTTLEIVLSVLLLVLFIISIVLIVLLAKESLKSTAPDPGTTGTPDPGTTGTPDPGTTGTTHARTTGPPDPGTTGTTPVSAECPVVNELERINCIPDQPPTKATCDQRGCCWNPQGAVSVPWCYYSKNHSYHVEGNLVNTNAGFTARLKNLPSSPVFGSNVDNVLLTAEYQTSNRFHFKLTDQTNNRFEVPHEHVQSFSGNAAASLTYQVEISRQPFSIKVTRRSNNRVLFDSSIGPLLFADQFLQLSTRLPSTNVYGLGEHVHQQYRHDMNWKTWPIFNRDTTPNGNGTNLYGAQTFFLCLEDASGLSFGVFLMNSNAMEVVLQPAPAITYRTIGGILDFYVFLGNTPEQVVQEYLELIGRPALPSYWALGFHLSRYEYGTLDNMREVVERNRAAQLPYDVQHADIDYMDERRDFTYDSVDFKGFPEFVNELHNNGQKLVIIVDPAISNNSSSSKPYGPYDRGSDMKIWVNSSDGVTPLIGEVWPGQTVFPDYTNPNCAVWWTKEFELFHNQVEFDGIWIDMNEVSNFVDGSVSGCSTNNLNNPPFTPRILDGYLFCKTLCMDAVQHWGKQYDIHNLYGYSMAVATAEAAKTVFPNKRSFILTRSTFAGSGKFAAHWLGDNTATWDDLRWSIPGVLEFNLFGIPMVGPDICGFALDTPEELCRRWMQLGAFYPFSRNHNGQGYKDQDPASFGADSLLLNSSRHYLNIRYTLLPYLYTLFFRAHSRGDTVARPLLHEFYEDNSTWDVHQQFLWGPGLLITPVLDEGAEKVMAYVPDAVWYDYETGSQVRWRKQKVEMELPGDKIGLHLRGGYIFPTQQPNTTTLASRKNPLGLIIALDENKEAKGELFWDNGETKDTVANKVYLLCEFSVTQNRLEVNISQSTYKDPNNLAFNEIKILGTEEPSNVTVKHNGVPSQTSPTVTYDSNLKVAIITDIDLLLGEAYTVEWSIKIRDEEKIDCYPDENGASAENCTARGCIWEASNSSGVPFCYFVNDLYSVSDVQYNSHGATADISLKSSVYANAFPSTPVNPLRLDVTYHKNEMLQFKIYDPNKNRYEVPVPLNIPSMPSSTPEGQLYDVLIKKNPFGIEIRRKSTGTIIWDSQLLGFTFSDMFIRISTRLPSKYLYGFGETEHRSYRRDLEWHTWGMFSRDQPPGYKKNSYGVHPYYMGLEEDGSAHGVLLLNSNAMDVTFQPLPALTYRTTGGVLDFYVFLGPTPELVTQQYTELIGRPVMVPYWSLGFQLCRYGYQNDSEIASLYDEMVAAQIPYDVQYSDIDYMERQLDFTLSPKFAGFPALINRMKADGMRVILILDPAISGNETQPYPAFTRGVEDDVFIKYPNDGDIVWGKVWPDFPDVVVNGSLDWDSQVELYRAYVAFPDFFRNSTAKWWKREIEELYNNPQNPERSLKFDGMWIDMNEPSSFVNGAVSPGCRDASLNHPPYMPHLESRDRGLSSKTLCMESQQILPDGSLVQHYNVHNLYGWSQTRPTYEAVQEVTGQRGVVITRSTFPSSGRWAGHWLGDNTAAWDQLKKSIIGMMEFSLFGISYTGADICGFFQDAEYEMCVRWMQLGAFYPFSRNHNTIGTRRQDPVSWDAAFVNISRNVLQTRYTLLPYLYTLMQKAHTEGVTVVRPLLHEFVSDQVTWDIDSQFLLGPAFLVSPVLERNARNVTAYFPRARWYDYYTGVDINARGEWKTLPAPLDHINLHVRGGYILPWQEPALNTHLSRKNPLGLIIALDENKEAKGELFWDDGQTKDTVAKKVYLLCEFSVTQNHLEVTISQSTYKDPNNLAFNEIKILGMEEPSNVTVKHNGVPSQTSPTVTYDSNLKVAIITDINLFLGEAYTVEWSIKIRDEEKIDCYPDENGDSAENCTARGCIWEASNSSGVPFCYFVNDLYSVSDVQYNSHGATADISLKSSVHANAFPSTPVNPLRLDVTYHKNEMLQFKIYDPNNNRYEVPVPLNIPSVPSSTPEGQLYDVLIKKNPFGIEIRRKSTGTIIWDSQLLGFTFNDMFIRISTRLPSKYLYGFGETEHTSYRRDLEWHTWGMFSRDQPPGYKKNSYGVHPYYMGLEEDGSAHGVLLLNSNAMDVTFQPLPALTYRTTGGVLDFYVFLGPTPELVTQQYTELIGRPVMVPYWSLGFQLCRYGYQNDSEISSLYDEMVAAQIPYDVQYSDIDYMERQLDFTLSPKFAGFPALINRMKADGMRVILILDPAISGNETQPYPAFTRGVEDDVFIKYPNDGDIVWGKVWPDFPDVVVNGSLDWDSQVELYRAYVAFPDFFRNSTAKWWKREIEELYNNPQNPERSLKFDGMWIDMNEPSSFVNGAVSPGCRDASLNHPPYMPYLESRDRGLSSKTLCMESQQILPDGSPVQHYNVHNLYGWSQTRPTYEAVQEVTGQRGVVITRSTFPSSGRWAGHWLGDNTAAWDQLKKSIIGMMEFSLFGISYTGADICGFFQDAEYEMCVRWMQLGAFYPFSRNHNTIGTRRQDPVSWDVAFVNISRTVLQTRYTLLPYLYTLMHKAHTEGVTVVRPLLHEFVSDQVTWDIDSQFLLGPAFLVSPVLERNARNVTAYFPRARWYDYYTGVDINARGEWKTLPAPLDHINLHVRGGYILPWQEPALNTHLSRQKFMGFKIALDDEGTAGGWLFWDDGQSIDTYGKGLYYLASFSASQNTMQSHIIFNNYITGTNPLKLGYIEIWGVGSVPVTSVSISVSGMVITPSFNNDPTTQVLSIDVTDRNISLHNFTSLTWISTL
structure (smiles),measurement,value
CC(C)=CCC/C(C)=C/Cc1c(O)cc(O)c(C(=O)/C=C/c2ccc(O)cc2)c1O,IC50,1080 nM
